From patent publication US20260014170A1, “PRODRUGS FOR DELIVERY OF TE[…] THE CENTRAL NERVOUS SYSTEM” (The Johns Hopkins University, priority 2022, published 2026)

How the values were obtained:
[1] = female rats, IN, 1.1 mg/kg equivalent of Testosterone, 1h post dose
Experimental: All prodrugs were administered intranasally (IN) at a dose of 1.1 mg/kg equivalent of Testosterone using a formulation of 5% Tween-80, 5% DMSO and 90% PBS containing 10 mM HEPES. Blood and brain were collected after sacrificing the animals at predetermined time point. Plasma was harvested from blood by centrifugation at 3,000 RPM for 15 min and stored at −80° C. Brain tissues were harvested following blood collection and immediately snap frozen in liquid nitrogen and stored at −80° C. until LC-MS/MS analysis. Calibration standards were prepared using naïve female rat plasma or brain with additions of respective prodrugs. For quantifying the released testosterone in the pharmacokinetic samples, plasma samples (20 μL) were processed by protein precipitation method by addition of 200 μL of acetonitrile containing internal standard (losartan: 0.5 μM), followed by vortex-mixing for 30 s and then centrifugation at 10,000 RPM for 10 min at 4° C. Brain tissues were diluted 1:5 w/v with acetonitrile containing losartan (0.5 μm) and homogenized, followed by vortex-mixing and centrifugation at 10,000 RPM for 10 min at 4° C. A 50 μL aliquot of the supernatant was diluted with 50 μL of water and transferred to 250 μL polypropylene autosampler vials sealed with teflon caps. Then, 2 μL of the sample was injected into the LC-MS/MS system for analysis.
The in vivo pharmacokinetics of prodrugs (P1, P3, P4, P5, P6, P7, P8, P9, P10, P11, P12, P13 and P14) were evaluated in female rats.

[2] = In vitro metabolic stability in rat brain homogenates; type: in vitro ADME; conditions: 10 μM, 37° C., 0 hour to 1 hour, n=3
Experimental: In vitro metabolic stability assessment was performed using brain homogenates. For the brain homogenates washed tissues were diluted 10-fold in 0.1-M potassium phosphate buffer and homogenized using a probe sonicator. […] Samples from each incubation at predetermined time points (0, 0.5, and 1h) were quenched with 3X volumes of acetonitrile containing the internal standard (IS; losartan: 0.5 μm). […] Disappearance of the intact compound and release of Testosterone were measured using liquid chromatography tandem mass spectrometry (LC-MS; full scan mode).
The metabolic stability of prodrugs (n=3) was evaluated using rat brain homogenates. The rat brain was homogenized using 100-mM phosphate buffer with 1:10 dilution (w/v). 10 μM concentration of the compounds was incubated at 37° C. and stability was evaluated from 0 hour to 1 hour. After incubation samples were precipitated using acetonitrile containing internal standard and quantified using high-resolution LC-MS/MS.

Row | SMILES | plasma levels compared with testosterone [1] | stable in brain homogenate [2] [%] | stability in rat brain homogenate [2] | levels of testosterone release [1]
1 | CC(C)OC(=O)OCO[C@H]1CC[C@H]2[C@@H]3CCC4=CC(=O)CC[C@]4(C)[C@H]3CC[C@]12C [Prodrug P1, (((8R,9S,10R,13S,14S,17S)-10,13-Dimethyl-3-oxo-2,3,6,7,8,9,10,11,12,13,14,15,16,17-tetradecahydro-1H-cyclopenta[α]phenanthren-17-yl)oxy)methyl isopropyl carbonate] | lower | 20 | – | –
2 | CN(C)CC(=O)O[C@H]1CC[C@H]2[C@@H]3CCC4=CC(=O)CC[C@]4(C)[C@H]3CC[C@]12C [Prodrug P3, (8R,9S,10R,13S,14S,17S)-10,13-Dimethyl-3-oxo-2,3,6,7,8,9,10,11,12,13,14,15,16,17-tetradecahydro-1H-cyclopenta[α]phenanthren-17-yl dimethylglycinate] | lower | – | moderately stable | –
3 | CC(C)[C@H](N)C(=O)N[C@@H](C(=O)O[C@H]1CC[C@H]2[C@@H]3CCC4=CC(=O)CC[C@]4(C)[C@H]3CC[C@]12C)C(C)C [Prodrug P4, (8R,9S,10R,13S,14S,17S)-10,13-Dimethyl-3-oxo-2,3,6,7,8,9,10,11,12,13,14,15,16,17-tetradecahydro-1H-cyclopenta[α]phenanthren-17-yl L-valyl-D-valinate] | – | – | – | low levels
4 | CN1CCN(CC(=O)O[C@H]2CC[C@H]3[C@@H]4CCC5=CC(=O)CC[C@]5(C)[C@H]4CC[C@]23C)CC1 [Prodrug P5, (8R,9S,10R,13S,14S,17S)-10,13-Dimethyl-3-oxo-2,3,6,7,8,9,10,11,12,13,14,15,16,17-tetradecahydro-1H-cyclopenta[α]phenanthren-17-yl 2-(4-methylpiperazin-1-yl)acetate] | – | – | stable | low levels
5 | C[C@]12CC[C@H]3[C@@H](CCC4=CC(=O)CC[C@@]43C)[C@@H]1CC[C@@H]2OC(=O)CN1CCOCC1 [Prodrug P6, (8R,9S,10R,13S,14S,17S)-10,13-Dimethyl-3-oxo-2,3,6,7,8,9,10,11,12,13,14,15,16,17-tetradecahydro-1H-cyclopenta[α]phenanthren-17-yl 2-morpholinoacetate] | – | – | stable | low levels
6 | C[C@]12CC[C@H]3[C@@H](CCC4=CC(=O)CC[C@@]43C)[C@@H]1CC[C@@H]2OC(=O)C(Cl)Cl [Prodrug P7, (8R,9S,10R,13S,14S,17S)-10,13-Dimethyl-3-oxo-2,3,6,7,8,9,10,11,12,13,14,15,16,17-tetradecahydro-1H-cyclopenta[α]phenanthren-17-yl 2,2-dichloroacetate] | – | – | moderately stable | –
7 | CN(C)CC(=O)NCC(=O)O[C@H]1CC[C@H]2[C@@H]3CCC4=CC(=O)CC[C@]4(C)[C@H]3CC[C@]12C [Prodrug P8, (8R,9S,10R,13S,14S,17S)-10,13-Dimethyl-3-oxo-2,3,6,7,8,9,10,11,12,13,14,15,16,17-tetradecahydro-1H-cyclopenta[α]phenanthren-17-yl dimethylglycylglycinate] | – | – | stable | low levels
8 | CN(C)CC(=O)NCC(=O)NCC(=O)O[C@H]1CC[C@H]2[C@@H]3CCC4=CC(=O)CC[C@]4(C)[C@H]3CC[C@]12C [Prodrug P9, (8R,9S,10R,13S,14S,17S)-10,13-Dimethyl-3-oxo-2,3,6,7,8,9,10,11,12,13,14,15,16,17-tetradecahydro-1H-cyclopenta[α]phenanthren-17-yl dimethylglycylglycylglycinate] | – | – | stable | –
9 | C[C@]12CC[C@H]3[C@@H](CCC4=CC(=O)CC[C@@]43C)[C@@H]1CC[C@@H]2OC(=O)CNC(=O)CN [Prodrug P10, (8R,9S,10R,13S,14S,17S)-10,13-Dimethyl-3-oxo-2,3,6,7,8,9,10,11,12,13,14,15,16,17-tetradecahydro-1H-cyclopenta[α]phenanthren-17-yl glycylglycinate] | – | – | moderately stable | –
10 | CC(C)C[C@H](NC(=O)CN(C)C)C(=O)O[C@H]1CC[C@H]2[C@@H]3CCC4=CC(=O)CC[C@]4(C)[C@H]3CC[C@]12C [Prodrug P11, (8R,9S,10R,13S,14S,17S)-10,13-Dimethyl-3-oxo-2,3,6,7,8,9,10,11,12,13,14,15,16,17-tetradecahydro-1H-cyclopenta[α]phenanthren-17-yl dimethylglycyl-L-leucinate] | – | – | stable | –
11 | CN(C)CC(=O)N[C@@H](Cc1ccccc1)C(=O)O[C@H]1CC[C@H]2[C@@H]3CCC4=CC(=O)CC[C@]4(C)[C@H]3CC[C@]12C [Prodrug P12, (8R,9S,10R,13S,14S,17S)-10,13-Dimethyl-3-oxo-2,3,6,7,8,9,10,11,12,13,14,15,16,17-tetradecahydro-1H-cyclopenta[α]phenanthren-17-yl dimethylglycyl-L-phenylalaninate] | lower | – | stable | –
12 | CC(=O)N[C@@H](CCC(=O)O[C@H]1CC[C@H]2[C@@H]3CCC4=CC(=O)CC[C@]4(C)[C@H]3CC[C@]12C)C(=O)O [Prodrug P13, (S)-2-Acetamido-5-(((8R,9S,10R,13S,14S,17S)-10,13-dimethyl-3-oxo-2,3,6,7,8,9,10,11,12,13,14,15,16,17-tetradecahydro-1H-cyclopenta[α]phenanthren-17-yl)oxy)-5-oxopentanoic acid] | – | – | stable | low levels
13 | C[C@]12CC[C@H]3[C@@H](CCC4=CC(=O)CC[C@@]43C)[C@@H]1CC[C@@H]2OC(=O)CC[C@H](N)C(=O)O [Prodrug P14, (S)-2-Amino-5-(((8R,9S,10R,13S,14S,17S)-10,13-dimethyl-3-oxo-2,3,6,7,8,9,10,11,12,13,14,15,16,17-tetradecahydro-1H-cyclopenta[α]phenanthren-17-yl)oxy)-5-oxopentanoic acid] | – | – | stable | low levels
